Publication PMC10762078, “Role of UPF1-LIN28A interaction during early differentiation of pluripotent stem cells” (Nature Communications, 2024)
Ends that are not written are not given here.

What was measured:
Assay type in all cases: cell-based, human
[1] = system: CHA15 cells; assay: Immunofluorescence counting of OCT4- and NANOG-positive cells (Fig. 6c); conditions: for NANOG-positive cells, fluorescence quantification, mean / OCT4-positive cells, fluorescence quantification, mean: CHA15, CPP-peptide 10 μM, mean of 4 sets; for NANOG fluorescence, difference between means vs P1 ± SEM / OCT4 fluorescence, difference between means vs P1 ± SEM: CHA15, vs CPP-P1
Procedure: (§1) For CPP-conjugated peptide delivery, HeLa, 293T, and PA-1 cells were incubated with CPP-conjugated peptides or CPP-FITC at 2 μM in DMEM with 10% FBS for 12 h a day before cell harvest. hPSCs were treated with CPP-conjugated peptides at 10 μM in mTeSR Plus Medium, and the peptide-containing medium was changed every day over 10 days. The ROCK inhibitor (Tocris Bioscience, Y-27632) treated-hPSCs were dissociated into single cells using Accutase (Merck, SCR005) and differentiated into ectoderm, mesoderm, and endoderm using the STEMdiff Trilineage Differentiation Kit ([…] Technologies, 05230) following the manufacturer’s protocol. Differentiated cells treated with CPP-conjugated peptides were analysed at 0, 3, and 5 days for ectoderm and endoderm, and at 0, 3, and 4 days for mesoderm.
(§2) hPSCs or differentiated cells were fixed in 4% paraformaldehyde (Sigma-Aldrich). After 15–20 min, the cells were washed with 0.1% bovine serum albumin in phosphate-buffered saline (BSA/PBS) thrice and blocked for 1 h by adding 0.3% Triton X-100 (Sigma-Aldrich) and 10% normal goat serum (NGS; Fitzgerald industries, NG22S). After blocking, cells were incubated with the following primary antibodies: anti-UPF1 (Cell Signaling Technology, 12040; 1:500), LIN28A (Cell Signaling Technology, 3978; 1:500), OCT4 (Santa Cruz, sc-5279; 1:500), NANOG (Cell Signaling Technology, 4903; 1:500), DLK1 (GeneTex, GTX60511; 1:500), SOX1 (Cell Signaling Technology, 4194; 1:500), or LHX2 (GeneTex, GTX129241; 1:500). Primary antibodies were incubated overnight at 4 °C followed by incubation with the following secondary antibodies: Cy3 (Jackson ImmunoResearch, 115-165-146; 1:500) or Alexa Fluor 488 (Invitrogen, A-11008; 1:500) followed by the incubation with secondary fluorescence-conjugated antibodies for 1 h. The cells were mounted in […] with DAPI mounting medium (Vector Laboratories, H1200).
(§3) Immunofluorescence staining, proximity ligation assay imaging, and cell-penetrating efficiency of CPP-FITC were imaged with a confocal laser scanning microscope (Leica, TSC SP5) or immunofluorescence microscope (Leica, DM5000B). Z-stacks were captured, with sections spanning the entire cell. The LAS X Life Science program was used to obtain the maximum intensity projections and cross-sections of the confocal images.

[2] = system: let-7a, let-7g, miR-16-5p and their targets in CHA15 cells; assay: RT-qPCR of mature LIN28A-regulated miRNAs and CDF of let-7-5p / miR-16-5p target mRNAs (Supplementary Fig. 6f); parameters: key to let-7a level (RT-qPCR): relative level normalised to U6 snRNA; conditions: for let-7a level (RT-qPCR): Fig. s6f, dot plots, CHA15 cells
Procedure: cDNA was synthesised using RevertAid Reverse Transcriptase (Thermo Fisher Scientific, EP0441) with synthesised random hexamer (Macrogen) for total RNA or stem-loop primers for miRNA. For RT-qPCR reactions, the SensiFAST SYBR No-ROX kit (Meridian Bioscience) was used according to the manufacturer’s protocol. All data analysis and visualisation were conducted using R 3.6.1 [www.r-project.org] or GraphPad Prism 10. RT primers for miRNA and RT-qPCR primer sequences are provided in Supplementary Data 6.
Genes regulated by miRNA let-7-5p and miR-16-5p were determined by TargetScanHuman. Among miRNA targets sorted by cumulative weighted context++ score (CWCS)[57], the 100 top genes were selected and analysed using CDF. […]
Scatter
(bottom panel), respectively. f Levels of m ature endogenous m iRNAs in CHA15 cells, which were regulated by LIN28A, were assessed using RT -qPCR. Cum ulative f raction of log2 fold change in the expression of genes regulated by let-7-5p and m iR-16- 5p was shown as CDF graphs. T he relative level of m RNA was norm alised to that of U6 snRNA in (c, d, and f). K–S tests were used for e and f. Unpaired Student’s t-test was used for c , d, and f . * p < 0.05, ** p < 0.01, *** p < 0.001. Exact p -values were provided in Source data. Data are presented as m ean values ± SEM. All statistical test used were two- sided. T he m inim um num ber of independent biological replicate experim ents was a and e n = 2, b–d and f n = 3. T he experim ents were conducted three tim es, each iteration producing consistent results.

[3] = system: CHA15 cells; assay: Immunostaining of SOX1, DLK1 and LHX2 during ectodermal differentiation (Fig. 7b); conditions: for DLK1 fluorescence quantification, mean / LHX2 fluorescence quantification, mean / SOX1 fluorescence quantification, mean: mean of set1-set4
Procedure: as §1, §2, §3

[4] = system: CHA15 cells; assay: Flow cytometry (FACS) of OCT4- and NANOG-positive cells (Fig. 6c, Supplementary Fig. 6b); conditions: for NANOG-positive cells, FACS (relative), mean / OCT4-positive cells, FACS (relative), mean: CHA15, CPP-peptide 10 μM, mean of 3 sets; for NANOG FACS, difference between means vs P1 ± SEM / OCT4 FACS, difference between means vs P1 ± SEM: CHA15, vs CPP-P1
Procedure: as §1
To evaluate the relative cell number expressing the indicated proteins, CHA15 cells with the indicated CPP-conjugated peptide were fixed with BD Cytofix Fixation Buffer (BD Biosciences Pharmingen, 554655) followed by permeabilization with 0.1% BSA/PBS solution supplemented with 10% NGS and 0.3% Triton X-100 for 1 h at 4 °C. After washing, cells were incubated with the primary antibodies (OCT4 1:1000, NANOG 1:1000, DLK1 1:1000, SOX2 1:1000, LHX2 1:1000) and then, secondary antibody, Alexa Fluor 488 (1:1000), was applied. The positive cells were determined using flow cytometry (FACSCanto, BD Pharmingen), and data was analysed using the Flow Jo-v10 software program.

[5] = ectodermal differentiation, CHA15
[6] = Fig 7b, vs. P1, ± SEM, unpaired t test, df=6

Substance	NANOG-positive cells, fluorescence quantification, mean [1]	OCT4-positive cells, fluorescence quantification, mean [1]	NANOG fluorescence, difference between means vs P1 ± SEM [1]	OCT4 fluorescence, difference between means vs P1 ± SEM [1]	NANOG-positive cells, FACS (relative), mean [4]	OCT4-positive cells, FACS (relative), mean [4]	NANOG FACS, difference between means vs P1 ± SEM [4]	OCT4 FACS, difference between means vs P1 ± SEM [4]	let-7a level (RT-qPCR) ([2]; replicate 1)	let-7a level (RT-qPCR) ([2]; replicate 2)	let-7a level (RT-qPCR) ([2]; replicate 3)	DLK1 fluorescence quantification, mean ([3]; Fig 7b)	LHX2 fluorescence quantification, mean ([3]; Fig 7b)	SOX1 fluorescence quantification, mean ([3]; Fig 7b)	other results
KKKWCRKKKSSADEKRYRALKRTAERELLMNA [CPP-P8, CPP conjugated to P8]	–	–	–	–	–	–	–	–	–	–	–	–	–	–	levels of OCT4 and NANOG ([1]; CHA15, proliferative state): significantly decreased; LIN28A-regulating miRNAs and their target mRNAs ([2]; CHA15): did not alter the expression of LIN28A-regulating miRNAs and their target mRNAs; DLK1 and LHX2 expression [3, 5]: increased DLK1 and LHX2 expression; SOX1 expression [3, 5]: abrogated SOX1 expression
KKKWCRKKKSSADEKRYRALKRTAERELLMNA [P8]	14.24	22.84	-71.49 ± 1.616	-69.57 ± 2.939	0.7195	0.7944	-0.2805 ± 0.006838	-0.2056 ± 0.01612	0.9027	0.8569	0.8754	98	65.64	40.11	DLK1 fluorescence quantification, difference between means ± SEM [3, 6]: 67.91 ± 4.905; LHX2 fluorescence quantification, difference between means ± SEM [3, 6]: 30.85 ± 5.040; SOX1 fluorescence quantification, difference between means ± SEM [3, 6]: -20.06 ± 8.048
N-MPELQKLQQLKDE-C [P2, peptide derived from the UPF1 (419–700) domain]	81.51	89.62	-4.223 ± 2.867	-2.780 ± 1.262	0.969	0.9851	-0.03103 ± 0.01235	-0.01489 ± 0.005688	0.9342	0.9709	0.9188	–	–	–	–
N-QKLDQKELQLEPM-C [P1, reference compound]	85.74	92.4	–	–	1	1	–	–	0.8272	1.208	0.9649	30.09	34.79	60.17	–
